Measurements from ChEMBL document CHEMBL1157539, “Thousands of chemical starting points for antimalarial lead identification” (Nature, 2010).

Tested on: Plasmodium falciparum
Test: GSK_TCMDC: Inhibition of Plasmodium falciparum 3D7 in whole erythrocytes, using parasite LDH activity as an index of growth.
Type: functional, organism-based
Settings: Plasmodium falciparum, 3D7

Compound `CCOc1ccc(C2CCN(CCCCNC(=O)c3ccc(NC(=O)c4ccc(Cl)cc4)cc3)CC2)c(OCC)c1` has an XC50 of 677 nM.

`CCc1c[nH]c2c(N3CCCC3=O)cc(C(=O)N[C@@H](Cc3ccccc3)[C@H](O)CNC(C)(C)CCCC(C)C)cc12` was tested, and the XC50 was 511 nM.

With `N#CC1(CCCNCCc2ccc(O)cc2)CCCc2c(O)cccc21` (stereo not drawn) the XC50 was 763 nM.

`COc1cc(C)nc2ccc(NC(=O)Nc3cccc4ccccc34)cc12` gave an XC50 of 878 nM.

For `COc1ccc(-c2nc(NC(=O)COc3ccc(C(C)=O)cc3)sc2C)cc1`, the XC50 was 713 nM.

`CCc1ccc(CC(C)NCC(O)c2ccccc2)cc1` (stereo not drawn) gave an XC50 of 887 nM.

For `Cn1c(-c2ccccc2)cc2c3c(N)nc(N)nc3ccc21`, the XC50 was 888 nM.

For `COc1ccccc1-c1cccc(-c2cccc(NC(=O)c3ccc([N+](=O)[O-])o3)c2)n1`, the XC50 was 603 nM.

`CC[C@H](C)CNC(=O)c1ccnc(-c2ccc(CNCCCc3ccccc3)cc2)c1` showed an XC50 of 1230 nM.

In the case of `O=C(/C=C/c1ccccc1F)NC1CCC(CCN2CCc3ccc(-c4cccnc4)cc3CC2)CC1` (stereo not drawn), the XC50 is reported as 900 nM.

Work on `CCOc1cc(C(=O)Nc2cccnc2)ccc1-c1nc2cc(Cl)c(Cl)cc2[nH]1` yielded an XC50 of 1010 nM.

With `Cc1nn(C)c(C)c1CN(Cc1nc(-c2cccc(Oc3ccccc3)c2)oc1C)C1CC1` the XC50 was 392 nM.

In the case of `Cc1cc(C2CCN(CCCCNC(=O)c3ccc(-c4ccc(C#N)cc4)cc3)CC2)c(C)cc1O`, the XC50 is reported as 854 nM.

With `Cc1cc(NC(=O)c2ccco2)ccc1OC1CCN(Cc2ccc(C#N)cc2)CC1` the XC50 was 497 nM.

Work on `Cc1ccc(S(=O)(=O)NC2=NC(=N)N(OCc3ccc(Cl)c(Cl)c3)C(C)(C)N2)cc1` yielded an XC50 of 1140 nM.

`O=C(C=Cc1ccc(Cl)c(Cl)c1)NCCCCCN1CCC(CCNC(=O)c2sc3ccccc3c2Cl)CC1` was tested, and the XC50 was 1010 nM.

In the case of `COc1ccc(OCc2ccccn2)c(C2CCN(CCCCNC(=O)c3ccc(NC(=O)c4ccc(Cl)cc4)cc3)CC2)c1`, the XC50 is reported as 764 nM.

`O=C(Nc1ccc(OC2CCN(Cc3ccccc3)C2)c(Cl)c1)c1ccco1` (stereo not drawn) showed an XC50 of 406 nM.

`N=C(NCC1CC1c1ccccc1)c1cccc(C(=N)NCC2CC2c2ccccc2)n1` (stereo not drawn) gave an XC50 of 1760 nM.

Work on `Cc1ccc(OCCCON2C(=N)N=C(N)NC2(C)C)cc1C` yielded an XC50 of 3.2 nM.

For `CCN(CC)Cc1cc(NC(=O)c2ccccc2O)ccc1Oc1ccc(Cl)cc1`, the XC50 was 827 nM.

In the case of `CC(=O)N(C)c1cccc(CNc2cc(C)nc(Nc3ccc(C)cc3)n2)c1`, the XC50 is reported as 996 nM.

Work on `CCn1ccc2c(N3CCCCS3(=O)=O)cc(C(=O)N[C@@H](Cc3ccccc3)[C@H](O)CNC3CCCCC3)cc21` yielded an XC50 of 122 nM.

`Cc1ccccc1C1CCN(C2CCC(NC(=O)/C=C/c3ccc(F)c(F)c3)CC2)CC1` (stereo not drawn) was tested, and the XC50 was 945 nM.

`CCOC(=O)N/N=C/[C@H](CCc1ccccc1)NC(=O)[C@H](CC(C)C)NC(=O)c1cc2cccc(OC)c2o1` gave an XC50 of 880 nM.

`Cn1cnc(CCNC(=O)c2cccc(-c3csc(-c4nc5ccccc5[nH]4)c3)c2)c1` gave an XC50 of 599 nM.

In the case of `CN(Cc1cccc(F)c1)C1CCN(c2cc(NC(=O)c3cccc(F)c3)ccn2)CC1`, the XC50 is reported as 1160 nM.

`N#Cc1cc(C(=O)c2cc(Br)ccc2O)cn(-c2cc(Cl)cc(Cl)c2)c1=O` was tested, and the XC50 was 879 nM.

For `O=C(/C=C/c1ccc(Cl)c(Cl)c1)N1CCC(CCCN2CCC(c3c[nH]c4ccc(O)cc34)CC2)CC1`, the XC50 was 694 nM.

Compound `O=C(Nc1cccc(-c2nn3ccccc3c2-c2ccnc(Nc3ccc(-c4cc[nH]n4)cc3)n2)c1)c1c(F)cccc1F` has an XC50 of 189 nM.

With `COc1cc(C(=O)NC2CC(C)(C)NC(C)(C)C2)ccc1-c1cc2cc(Cl)c(Cl)cc2[nH]1` the XC50 was 724 nM.

`COc1ccc(NC(=O)/C=C/c2ccccc2Cl)cc1OCCN1CCC(N(C)C)CC1` gave an XC50 of 969 nM.

`COc1ccc2nccc(NC(=O)OC3CCC(NCc4ccc5c(n4)NC(=O)CS5)CC3)c2c1` (stereo not drawn) was tested, and the XC50 was 924 nM.

In the case of `CCCCCCOc1ccccc1C(=O)NCCOc1ccc(Cl)cc1`, the XC50 is reported as 1210 nM.

`CN1CCN(c2cc3c(cc2Cl)CCN3C(=O)Cc2ccc(Cl)c(NC(=O)Nc3cccc(C#N)c3)c2)CC1` was tested, and the XC50 was 637 nM.

Work on `CC(Oc1ccc(Cl)cc1)C(=O)NCCC1CCN(CCCCCNC(=O)/C=C/c2ccc(Cl)c(Cl)c2)CC1` (stereo not drawn) yielded an XC50 of 1020 nM.

In the case of `CN(C)C(=S)N/N=C1/C(=O)Nc2ccc(OC(F)(F)F)cc21`, the XC50 is reported as 1020 nM.

For `Cc1csc2nc(-c3ccccn3)nc(Nc3ccncn3)c12`, the XC50 was 786 nM.

In the case of `c1cc(-c2ccc(CNCc3ccc(-c4csnn4)cc3)cc2)cc(-c2nc3ccccc3[nH]2)c1`, the XC50 is reported as 158 nM.

`Cc1ccc(C)c(NC(=O)NC2CCN(c3ccnc(Nc4ccc(F)cc4)n3)C2)c1` (stereo not drawn) was tested, and the XC50 was 675 nM.

With `COc1cc(Br)ccc1N1CCN(CCCCNC(=O)c2ccc(NC(=O)c3ccc(Cl)cc3)cc2)CC1` the XC50 was 758 nM.

With `CN(CCCc1c[nH]c2ccccc12)CCC1CCC(NC(=O)/C=C/c2ccc(Cl)c(Cl)c2)CC1` (stereo not drawn) the XC50 was 650 nM.

With `C=C(C)Cn1cc(C2CCN(CCN3CCC(CNC(=O)c4ccc(-c5ccc(C#N)cc5)cc4)CC3)CC2)c2ccccc21` the XC50 was 433 nM.

For `CCCc1cccc(C)c1OCCCON1C(=N)N=C(N)NC1(C)C`, the XC50 was 3.2 nM.

`O=C(Nc1ccc(-c2cccc(-c3nc4ccccc4[nH]3)c2)cc1)Nc1ccc2c(c1)OCO2` gave an XC50 of 254 nM.

Work on `O=C(Nc1ccncc1)Nc1ccc2c(c1)CCN(C1CCC1)CC2` yielded an XC50 of 1130 nM.

`C=CCOC(=O)N1CCC(CNCc2cccc(-c3cccc(-c4nc5cc(F)ccc5[nH]4)c3)c2)C1` (stereo not drawn) showed an XC50 of 207 nM.

In the case of `CCCN1CCCN(Cc2cccc(NC(=O)c3ccc(-c4ccccc4)cc3)c2)CC1`, the XC50 is reported as 1110 nM.

In the case of `CN1CCCC(CN2CCN(Cc3ccc(-c4ccc(-c5nc6cc(F)ccc6[nH]5)cc4)cc3)CC2)C1` (stereo not drawn), the XC50 is reported as 117 nM.

With `Fc1ccc2[nH]c(-c3cccc(-c4cccc(CN5CCN(c6ccncc6)CC5)c4)c3)nc2c1` the XC50 was 145 nM.

In the case of `Cc1[nH]c(C)c(-c2ccc(Oc3cccc(Cl)c3)cc2)c(=O)c1Cl`, the XC50 is reported as 20.8 nM.

With `CCC(C)(C)NC(=O)C(c1cccc(OC)c1)N(C(=O)CNC(=O)c1cccs1)c1ccc2c(c1)OCCO2` (stereo not drawn) the XC50 was 828 nM.

`Cc1ccc(C2(C)CN(CCCOc3cccc(-c4ccc(C(=O)NC(C)C)cc4)c3)CCO2)cc1` (stereo not drawn) gave an XC50 of 960 nM.

`CCc1ccc(C2CCN(CCCCNC(=O)c3ccc(NC(=O)c4ccc(Cl)cc4)cc3)CC2)c(OCCO)c1` gave an XC50 of 1390 nM.

Compound `COCCNC(=O)C(CNC(=O)c1ccc2c(c1)OCO2)NC(=O)c1ccc(-c2ccccc2)cc1` (stereo not drawn) has an XC50 of 974 nM.

With `Cc1cc(CN2CCC(Nc3ncc(-c4ccsc4)c4nc(C(F)(F)F)ccc34)CC2)no1` the XC50 was 1100 nM.

For `CN(C)c1ccc(-c2ccc(C(=O)NC3CCN(Cc4ccccc4)CC3)s2)cc1`, the XC50 was 1050 nM.

For `CC(Cc1ccc(NC(=O)[C@@H](C)NCCc2cccc(Cl)c2)cc1)NCCc1cccc(Cl)c1` (stereo partly drawn), the XC50 was 778 nM.

In the case of `Cc1cc(C(=O)NCc2ccc(-c3c(C)noc3C)cc2)n(-c2ccccc2)n1`, the XC50 is reported as 825 nM.

With `N#Cc1ccc(N2CCN(Cc3cccc(-c4ccc(-c5nc6ccccc6[nH]5)cc4)c3)CC2)nc1` the XC50 was 1240 nM.

`CC(C)C1=CC(=NOS(=O)(=O)c2ccccc2)C=C(C(C)C)C1=O` showed an XC50 of 712 nM.

`O=C(NC1CCN(CCC[C@]2(c3ccc(Cl)c(Cl)c3)CCCN(C(=O)c3ccccc3)C2)CC1)c1ccc(F)cc1` showed an XC50 of 883 nM.

`CC[C@H]1CN2CC[C@@H]1C[C@H]2[C@H](O)c1cc(N2CCC(CO)CC2)nc2ccc(OC)cc12` was tested, and the XC50 was 162 nM.

Work on `OC(CN1c2ccccc2Sc2ccccc21)CN(C1CCCCC1)C1CCCCC1` (stereo not drawn) yielded an XC50 of 651 nM.

With `CCCCc1ccc(-c2nc(NC(=O)Nc3[nH]c(-c4ccccc4)nc3C(=O)OCC)c(C(=O)OCC)[nH]2)cc1` the XC50 was 752 nM.

With `CCOc1ccc2ccccc2c1CNCCCCCCNCc1c(OCC)ccc2ccccc12` the XC50 was 576 nM.

Compound `CCNc1cc(C(=O)N[C@@H](Cc2ccccc2)[C@H](O)CNCCc2cccc(C(F)(F)F)c2)cc(N2CCCC2=O)c1` has an XC50 of 879 nM.

For `C[C@H](CNc1ccnc(Nc2ccc3[nH]c(=O)[nH]c3c2)n1)c1ccccc1`, the XC50 was 1310 nM.
